Assay in all cases: NCI anticancer screen, dose series, 48 h
The test system of assay [1] is SW-620 colon.
The subject of assay [2] is KM12 colon.
The subject of assay [3] is A549 NSCLC.
The test system of assay [4] is U251 CNS.
Assay [5] relates to NCI-H522 lung.
Assay [6] relates to NCI-H23 lung.
The test system of assay [7] is ACHN renal.
Assay [8] has as its system NCI-H226 lung.
For assay [9], the system named is MCF7 breast.
Assay [10] deals with EKVX NSCLC.

In PubChem BioAssay (NCI) one finds GI50 and TGI data, which are given here for 27 molecules.

SMILES strings stand for the structures.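 Compound exposure: 48 hours, 5 concentrations, 96-well plates. GI50 is the concentration that inhibits growth by half. TGI: concentration producing complete growth inhibition.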

On to `COc1ccc(/C=C/C(=O)c2ccc(NC(=O)CSc3nnc(-c4cc(OC)c(OC)c(OC)c4)o3)cc2)cc1`, for which the GI50 in [1] was 1.86 µM; in assay [2] it was 1.77 µM; in [3], 1.84 µM; in assay [4], 1.68 µM; in [5] it was 1.55 µM; in assay [6] it was 1.88 µM. The GI50 is 1.72 µM in assay [7], 2.67 µM in [8] and 1.27 µM in assay [9]. Also, the TGI in [1] worked out at 3.6 µM; in [2], 3.4 µM; in [3], 3.53 µM; in assay [4] it was 3.18 µM; in assay [5], 3.22 µM; in assay [6], 3.97 µM. Further, the figures for the TGI in assay [7], in assay [8] and in assay [9] were 3.22 µM, 5.69 µM and 3.68 µM, respectively.

For `NC(CCCNCc1ccccc1O)C(=O)O` (stereo not given), the TGI in assay [10], in assay [1], in assay [2], in assay [3], in assay [5] and in assay [6] was greater than 100 µM throughout. The TGI in [7] and in [8] was greater than 100 µM in each case.

`O=c1[nH]c(C2CCCCC2)nc2cc(Cl)ccc12`: the TGI in [10], in [1], in assay [2], in assay [3], in assay [4] and in assay [5] was greater than 100 µM throughout. Moreover, the TGI in [6], in [7] and in assay [8] was greater than 100 µM in each case.

As for `O=C(Nc1ccc(Cl)cc1Cl)/C(Cl)=C1/Sc2ccccc2NC1=O`, the TGI in [10] is greater than 100 µM; in [1] it was greater than 100 µM; in [3], greater than 100 µM; in assay [4], greater than 100 µM; in [5] it was 49 µM; in [6] it was 55 µM. Also, the TGI in assay [7] worked out at 78.9 µM; in assay [8] it was 79.2 µM.

On to `O=C(CCc1cc(-c2ccco2)n(-c2ccc([N+](=O)[O-])cc2[N+](=O)[O-])n1)Nc1ccccc1`, for which the TGI in [10], in [1], in [2], in assay [3], in [4] and in assay [5] was greater than 100 µM each time. Besides, the TGI in assay [6], in assay [7] and in assay [8] was greater than 100 µM in each case.

Take `Clc1cccc(Cc2cn3cc(-c4ccccc4)nc3s2)c1`: the GI50 in assay [1] was 1.26 µM; in assay [2], 1.99 µM; in [3], 3.93 µM; in assay [4], 9.18 µM; in assay [6], 9.07 µM; in [7] it was 2.77 µM. For the same molecule, the GI50 in assay [8] is 49.2 µM; in assay [9] it was 2.79 µM. For the same molecule, the TGI in assay [1] is greater than 100 µM; in assay [2], greater than 100 µM; in assay [3] it was greater than 100 µM; in assay [4] it was 81.2 µM; in assay [6] it was 98.9 µM; in assay [7], greater than 100 µM. The TGI in assay [8] and in [9] was greater than 100 µM each time.

`FC(F)(F)c1ccccc1C=NC12CC3CC(CC(C3)C1)C2`: the TGI in assay [10], in assay [1], in assay [2], in assay [3], in assay [4] and in assay [6] was greater than 100 µM throughout. Also, the TGI in assay [7] and in [8] was greater than 100 µM each time.

On to `[O-][N+]1=C(c2ccccc2)COc2ccccc21`, for which the TGI in [1], in assay [2], in [3], in [4], in [5] and in assay [6] was greater than 100 µM in each case. Also, the TGI in assay [7] and in [8] was greater than 100 µM in each case.

In the case of `C=C1CCC2C(C)(CO)C(O)CCC2(C)C1CC(O)C1=CCOC1=O` (stereo not given), the TGI is greater than 100 µM in assay [10]; 51.3 µM in [1]; greater than 100 µM in assay [2]; greater than 100 µM in assay [3]; 50.7 µM in assay [4]; 20.3 µM in assay [5]. Moreover, the TGI in assay [6], in assay [7] and in assay [8] was greater than 100 µM each time.

In the case of `O=CN/C=C/c1ccccc1O`, the TGI in [10], in [1], in assay [2], in [3], in [4] and in assay [5] was greater than 100 µM in each case. The TGI in [6], in assay [7] and in [8] was greater than 100 µM in each case.

As to `O=C1CC23CC(=O)CC2(C1)c1ccccc1C3=O` (stereo not given), the TGI in assay [10], in [1], in [2], in assay [3], in [4] and in assay [5] was greater than 100 µM each time. Moreover, the TGI in assay [6], in assay [7] and in assay [8] was greater than 100 µM in each case.

`Cc1ccc(S(=O)(=O)NC(=O)Nc2nc(Cl)cc(Cl)n2)cc1`: the TGI in [10] is greater than 100 µM; in assay [1], greater than 100 µM; in assay [2], greater than 100 µM; in assay [3], greater than 100 µM; in [4] it was greater than 100 µM; in [5], 23.9 µM. In addition, the TGI in [6], in assay [7] and in assay [8] was greater than 100 µM throughout.

Consider `C#Cc1ccc(-n2c(/C=C/c3ccc4ccccc4n3)nc3ncccc3c2=O)cc1`, for which the GI50 was 0.387 µM in assay [1]; 0.359 µM in assay [2]; 0.353 µM in assay [3]; 0.419 µM in assay [4]; 0.281 µM in [5]; 0.774 µM in [6]. Also, the GI50 in assay [8] was 0.408 µM. Moreover, the TGI in assay [1] is 1.52 µM; in assay [2] it was 1.26 µM; in [3], 1.83 µM; in assay [4], 1.59 µM; in assay [5], 0.779 µM; in assay [6] it was 2.32 µM. This molecule returned a TGI in [8] of 1.37 µM.

As to `Cc1cc2c(=O)cc(-c3ccc(C(=O)O)cc3)oc2c(C(=O)O)c1C`, the TGI in assay [10], in assay [1], in assay [2], in [3], in assay [4] and in assay [5] was greater than 100 µM throughout. In addition, the TGI in assay [6], in assay [7] and in [8] was greater than 100 µM each time.

Consider `COC(=O)CCC(=O)C(C#N)c1ccc(Cl)cc1Cl` (stereo not given), for which the TGI in [10], in assay [1], in assay [2], in [3], in assay [4] and in assay [5] was greater than 100 µM in each case. The TGI in assay [6], in [7] and in assay [8] was greater than 100 µM in each case.

On to `Cn1c(-c2ccccc2)c/c(=N\NS(C)(=O)=O)c2cc(S(=O)(=O)O)ccc21`, for which the TGI in assay [10], in [1], in assay [2], in assay [3], in assay [4] and in assay [5] was greater than 100 µM in each case. Further, the TGI in [6], in assay [7] and in assay [8] was greater than 100 µM in each case.

As for `Cc1ccccc1C(C#N)/C(=N/NC(=O)C(=O)NN)C(=O)Nc1cccc(C(F)(F)F)c1` (stereo not given), the TGI in assay [10], in assay [1], in [2], in [3], in assay [4] and in assay [5] was greater than 100 µM in each case. Also, the TGI in assay [6], in assay [7] and in assay [8] was greater than 100 µM throughout.

As to `COc1ccc(OC)c2c3c(ncc12)-c1cc2c(cc1C3)OCO2`, the GI50 in [10] was 93.4 µM; in assay [1] it was greater than 100 µM; in assay [2] it was greater than 100 µM; in assay [3] it was greater than 100 µM; in assay [4] it was 0.209 µM; in assay [5], 52.3 µM. For the same molecule, in assay [7], the GI50 is 2.97 µM. For the same molecule, the TGI was greater than 100 µM in assay [10]; greater than 100 µM in assay [1]; greater than 100 µM in [2]; greater than 100 µM in assay [3]; 3.31 µM in [4]; greater than 100 µM in assay [5]. The same molecule gave a TGI in [7] greater than 100 µM.

Take `N=C(N)c1ccc(-c2ccc(-c3ccco3)o2)cc1F`: the GI50 in [1] was 1.72 µM; in assay [2], 1.92 µM; in assay [3], 3.04 µM; in [4] it was 1.72 µM; in [5] it was 2.31 µM; in assay [7], 1.84 µM. Also, the GI50 was 2.61 µM in assay [8] and 1.83 µM in assay [9]. The TGI in assay [1] came to 3.7 µM; in assay [2], 3.62 µM; in [3], 10.6 µM; in assay [4] it was 3.55 µM; in [5], 6 µM; in assay [7], 3.81 µM. In addition, the TGI in assay [8] was found to be 13.6 µM; in [9], 4.84 µM.

For `O=C(Cc1nc2ccccc2s1)NC12CC3CC(CC(C3)C1)C2`, the TGI in [10], in assay [1], in assay [2], in assay [3], in assay [4] and in assay [5] was greater than 100 µM throughout. Besides, the TGI in assay [6], in [7] and in assay [8] was greater than 100 µM each time.

`N#Cc1ccccc1/C=N/O`: the TGI in [10] was greater than 100 µM; in assay [1], greater than 51.8 µM; in assay [2], greater than 100 µM; in assay [3], greater than 100 µM; in [4], greater than 100 µM; in assay [5], greater than 100 µM. Moreover, the TGI in [6], in assay [7] and in assay [8] was greater than 100 µM in each case.

Regarding `O=[N+]([O-])c1ccc(C2N3CCCCC3[C@@H]3c4[nH]c5ccccc5c4CCN23)cc1` (stereo not given in full), the TGI was greater than 100 µM in assay [10]; greater than 100 µM in assay [1]; greater than 100 µM in [3]; 58.1 µM in assay [4]; 35.7 µM in assay [6]; 43.8 µM in assay [7].

Regarding `COC(=O)C1CCc2nnc(-c3cccnc3)n21` (stereo not given), the TGI in [10], in [1], in assay [2], in assay [3], in assay [4] and in assay [5] was greater than 100 µM in each case. Further, the TGI in assay [7] and in assay [8] was greater than 100 µM each time.

As to `O=C(/C=C/c1ccc2c(c1)OCO2)c1ccccc(=O)c1O`, the TGI in assay [10] was greater than 100 µM; in assay [1], greater than 100 µM; in [2] it was 26.1 µM; in assay [4] it was greater than 100 µM; in assay [5] it was 63.4 µM; in assay [7] it was greater than 100 µM. The molecule further displayed a TGI in assay [8] greater than 100 µM.

`CN(C)CCOc1cccc(NC2=C(Cl)C(=O)C(Nc3cccc(OCCN(C)C)c3)=C(Cl)C2=O)c1`: the GI50 in assay [10] is 0.794 µM; in [1] it was 0.207 µM; in assay [2], 1.33 µM; in assay [3] it was 2.19 µM; in assay [4], 1.47 µM; in assay [5] it was 0.194 µM. Moreover, the GI50 in [6] was 0.323 µM; in [7], 0.219 µM; in assay [8], 1.81 µM. Further, the TGI in assay [10] was determined as 2.13 µM; in assay [1], 0.438 µM; in [2] it was 2.92 µM; in [3], 3.98 µM; in [4], 2.93 µM; in [5], 0.46 µM. Further, the TGI in assay [6] was determined as 1.35 µM; in assay [7] it was 0.465 µM; in [8] it was 3.93 µM.

As to `O=c1nc2[nH]nc(-c3ccccc3)c2n[nH]1`, the TGI in [10], in assay [1], in assay [2], in [3], in [4] and in assay [5] was greater than 100 µM throughout. Besides, the TGI in assay [6], in assay [7] and in assay [8] was greater than 100 µM each time.

Consider `CC(C)(C)C1CCN(C(=O)c2ccccc2)CC1`, for which the TGI in [10], in assay [1], in assay [2], in [3], in assay [4] and in assay [5] was greater than 100 µM each time. The TGI in [6], in [7] and in assay [8] was greater than 100 µM throughout.
